Assay results published in PubChem BioAssay (NCI).
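Grown in 96-well plates, cells were treated for 48 hours with each compound at five concentrations. Insufficient inhibition: endpoint recorded as highest concentration tested. Abbreviation: GI50, concentration required for 50% inhibition of growth. The concentration for full growth arrest is given as TGI.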

Assays:
Experiment in all cases: growth of human tumour cells (NCI), 48 h
SN12C renal = test system: SN12C renal
CCRF-CEM leukemia = test system: CCRF-CEM leukemia
OVCAR-5 ovarian = test system: OVCAR-5 ovarian
HCT-116 colon = test system: HCT-116 colon
HL-60(TB) leukemia = test system: HL-60(TB) leukemia
RXF 393 renal = test system: RXF 393 renal
OVCAR-3 ovarian = test system: OVCAR-3 ovarian
SNB-19 CNS = test system: SNB-19 CNS
UO-31 renal = test system: UO-31 renal
OVCAR-4 ovarian = test system: OVCAR-4 ovarian

SMILES	GI50 (SN12C renal)	TGI (SN12C renal)	GI50 (CCRF-CEM leukemia)	TGI (CCRF-CEM leukemia)	GI50 (OVCAR-5 ovarian)	TGI (OVCAR-5 ovarian)	GI50 (HCT-116 colon)	TGI (HCT-116 colon)	GI50 (HL-60(TB) leukemia)	TGI (HL-60(TB) leukemia)	GI50 (RXF 393 renal)	TGI (RXF 393 renal)	GI50 (OVCAR-3 ovarian)	TGI (OVCAR-3 ovarian)	GI50 (SNB-19 CNS)	TGI (SNB-19 CNS)	GI50 (UO-31 renal)	TGI (UO-31 renal)	TGI (OVCAR-4 ovarian)	GI50 (OVCAR-4 ovarian)
CCN(CC)CCOc1ccc(/C=C2\C[C@H]3[C@@H]4CC=C5C[C@@H](OC(C)=O)CC[C@]5(C)[C@H]4CC[C@]3(C)[C@H]2OC(C)=O)cc1OC	9.06 µM	21.3 µM	0.361 µM	6.77 µM	9.3 µM	18 µM	9.76 µM	18.6 µM	9.57 µM	19.5 µM	8.96 µM	20.7 µM	10.3 µM	22.1 µM	11.8 µM	30.1 µM	11.6 µM	27 µM		
CC1=C(C#N)C(N)=C2C(C)=C(C#N)C(N)=C12		> 100 µM		> 100 µM		> 100 µM		> 100 µM		> 100 µM		> 100 µM		> 100 µM		> 100 µM		> 100 µM	> 100 µM	
Cc1nnc2n1N=C(CC(=O)c1ccc(O)cc1O)CN2N		> 100 µM		> 100 µM		> 100 µM		> 100 µM		> 100 µM		> 100 µM				> 100 µM		> 100 µM	> 100 µM	
C/C(=C(/c1ccc(O)cc1)c1ccc(OCCN2CCCC2)cc1)c1ccccc1	9.17 µM	25.7 µM	3.2 µM	9.85 µM	7.99 µM	22.5 µM	2.92 µM	10.1 µM	2.04 µM	4.97 µM	2 µM	5.05 µM	5.66 µM	18.1 µM	2.95 µM	8.1 µM	1.87 µM	5.72 µM	17.5 µM	4.7 µM
Cc1cc(N(CCC#N)S(=O)(=O)c2ccccc2)ccc1C=O		> 100 µM		> 100 µM		> 100 µM		> 100 µM		> 100 µM		> 100 µM		> 100 µM		> 100 µM		> 100 µM	> 100 µM	
CC(C)OP(=O)(OC(C)C)C(N(C)C)P(=O)(OC(C)C)OC(C)C.[Cl][Sn]([Cl])([Cl])[c]1ccccc1	4.13 µM	> 100 µM	2.07 µM	18.6 µM	4.37 µM	49.1 µM			1.63 µM	4.84 µM	2.81 µM	11.4 µM	5.64 µM	53 µM	17.8 µM	> 100 µM	4.12 µM	> 100 µM		
CC(=O)[CH-]C(=O)c1ccccc1.CC(=O)[CH-]C(=O)c1ccccc1.[O]=[U+2]=[O]	56 µM	> 100 µM	27.8 µM	> 100 µM	> 100 µM	> 100 µM			29.6 µM	80.3 µM	34 µM	> 100 µM	88.2 µM	> 100 µM					> 100 µM	40.3 µM
COC(=O)/C(=N\NC(=O)c1ccccc1O)C(C#N)c1ccc(Cl)cc1 (stereo not given)		> 100 µM		> 100 µM		90.3 µM		> 100 µM		> 100 µM		79.8 µM		> 100 µM				37.3 µM	> 100 µM	
O=C(Oc1c(I)ccccc1=O)c1ccc([N+](=O)[O-])cc1		67.9 µM		> 100 µM		> 100 µM		> 100 µM		46.5 µM		21.7 µM		40.1 µM		46.5 µM		68.9 µM		
